Experimental data reported in PubChem BioAssay (NCI).
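Protocol summary: plate cells (96-well), add compound at 5 concentrations, incubate 48 h, interpolate endpoints linearly. Abbreviation: GI50, concentration required for 50% inhibition of growth. At the TGI there is no net growth.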

Key:
Test in all cases: growth of human tumour cells (NCI), 48 h
UO-31 renal = test system: UO-31 renal
SK-MEL-28 melanoma = test system: SK-MEL-28 melanoma
UACC-257 melanoma = test system: UACC-257 melanoma
U251 CNS = test system: U251 CNS
SN12C renal = test system: SN12C renal
OVCAR-4 ovarian = test system: OVCAR-4 ovarian
TK-10 renal = test system: TK-10 renal
RXF 393 renal = test system: RXF 393 renal
HS 578T breast = test system: HS 578T breast
COLO 205 colon = test system: COLO 205 colon

Structure (SMILES) | TGI (UO-31 renal) [µM] | TGI (SK-MEL-28 melanoma) [µM] | TGI (UACC-257 melanoma) [µM] | TGI (U251 CNS) [µM] | TGI (SN12C renal) [µM] | TGI (OVCAR-4 ovarian) [µM] | TGI (TK-10 renal) [µM] | TGI (RXF 393 renal) [µM] | TGI (HS 578T breast) [µM] | TGI (COLO 205 colon) [µM] | GI50 (UO-31 renal) [µM] | GI50 (SK-MEL-28 melanoma) [µM] | GI50 (UACC-257 melanoma) [µM] | GI50 (U251 CNS) [µM] | GI50 (SN12C renal) [µM] | GI50 (OVCAR-4 ovarian) [µM] | GI50 (TK-10 renal) [µM] | GI50 (RXF 393 renal) [µM] | GI50 (HS 578T breast) [µM] | GI50 (COLO 205 colon) [µM]
CCOC(=O)C1=NN(c2ccc([N+](=O)[O-])cc2)[C@@]2(C)C[C@]3(c4ccccc4)N(c4ccc([N+](=O)[O-])cc4)N=C(C(=O)OCC)N3c3ccccc3N12 | > 100 | > 100 | > 100 | > 100 | > 100 | > 100 | > 100 | > 100 | > 100 | > 100 | – | – | – | – | – | – | – | – | – | –
COc1cc(/C=N/n2c(-c3ccccc3)nn(C(C)=O)c2=O)cc(OC)c1OC | 54.4 | > 80.6 | > 39.3 | > 44.6 | > 100 | > 100 | 31.8 | > 88.4 | > 26.9 | 4.55 | – | – | – | – | – | – | – | – | – | –
N#Cc1c(-c2ccc(Cl)cc2)[nH]c(=O)n(C2OC(CO)C(O)C(O)C2O)c1=O (stereo not given) | > 100 | > 100 | > 100 | > 100 | > 100 | > 100 | > 100 | > 100 | > 100 | > 100 | – | – | – | – | – | – | – | – | – | –
S=C1CCSc2c(ccc3ccccc23)N1 | > 100 | > 100 | > 100 | > 100 | > 100 | > 100 | > 100 | > 100 | > 100 | > 100 | – | – | – | – | – | – | – | – | – | –
CC[C@@]1(C)CCC2c3ccc(O)cc3CC[C@H]2C1C (stereo not given in full) | 30.4 | 32 | 29.3 | 30.9 | 34.3 | 35.7 | 33.3 | 26 | 35.5 | 35.1 | – | – | – | – | – | – | – | – | – | –
O=C(c1ccccc1)c1ccc2[nH]c(-c3c(Cl)c(Cl)c(Cl)c(Cl)c3C(=O)N/N=C/c3cccc(Oc4ccccc4)c3)nc2c1 | > 100 | > 100 | > 100 | > 100 | > 100 | > 100 | > 100 | > 100 | > 100 | > 100 | – | – | – | – | – | – | – | – | – | –
COc1ccc(Cc2nnc(Nc3ccc(Br)cc3)[nH]c2=O)cc1OC | > 100 | > 100 | > 100 | > 100 | > 100 | > 100 | > 100 | > 100 | > 100 | > 100 | – | – | – | – | – | – | – | – | – | –
O=C(Nc1ccc(-n2ccc3c(NC(=O)c4ccccc4)ncnc32)cc1)Nc1ccc(Cl)c(Cl)c1 | 14.8 | 9.43 | 10.8 | 2.29 | 12.3 | 1.8 | 3.46 | 13.3 | 5.77 | 9.89 | 7.16 | 2.92 | 3.57 | 0.942 | 4.76 | 0.887 | 1.44 | 6.48 | 1.19 | 2.6
Cn1c(=O)c2c(nc3n2CCCC(=O)N3CC(O)CCl)n(C)c1=O (stereo not given) | > 100 | > 100 | > 100 | > 100 | > 100 | > 100 | > 100 | > 100 | > 100 | > 100 | – | – | – | – | – | – | – | – | – | –
CC1(C)Cc2nc3c(cc2C(=O)C1C=N/C(C#N)=C(\N)C#N)C(=O)C(C=N/C(C#N)=C(\N)C#N)C(C)(C)C3 (stereo not given) | 3.51 | 4.58 | 6.73 | 3.14 | 5.23 | > 100 | 18 | 3.04 | 3.32 | 7.04 | – | – | – | – | – | – | – | – | – | –
CC(C)C(=O)Nc1cc(C(F)(F)F)ccc1[N+](=O)[O-] | > 100 | > 100 | > 100 | > 100 | > 100 | > 100 | > 100 | > 100 | > 100 | > 100 | – | – | – | – | – | – | – | – | – | –
NC(=O)NCCCC(NC(=O)OCCCCCCn1ccc(=O)[nH]c1=O)C(=O)O (stereo not given) | > 100 | > 100 | > 100 | > 100 | > 100 | > 100 | > 100 | > 100 | > 100 | > 100 | – | – | – | – | – | – | – | – | – | –
COc1ccc(CCCNC(=O)c2cc(OC)c(OC)cc2CCO)cc1OC | > 100 | > 100 | > 100 | > 100 | > 100 | > 100 | > 100 | > 100 | > 100 | > 100 | – | – | – | – | – | – | – | – | – | –
COc1cc(NCCC2CCCCN2)c2ncccc2c1 (stereo not given) | > 100 | > 59.8 | 41.1 | > 100 | > 77.2 | > 100 | > 100 | 77 | > 100 | 28.6 | – | – | – | – | – | – | – | – | – | –
O=c1[nH]nc(Cc2c[nH]c3ccccc23)o1 | > 100 | > 100 | > 100 | > 100 | > 100 | > 100 | > 100 | > 100 | > 100 | > 100 | – | – | – | – | – | – | – | – | – | –
O=C1C2=C(CC3=C(C2)CS(=O)(=O)C3)C(=O)C2=C1CC1=C(C2)CS(=O)(=O)C1 | > 63.4 | > 70 | > 61.2 | 31 | 30.2 | > 33.1 | > 66.9 | 49.6 | > 60.6 | 35.7 | – | – | – | – | – | – | – | – | – | –
